Legend:
[1] = system: CRPC; details: plus prednisone; CRPC patients previously treated with docetaxel; cited from earlier work
[2] = system: LNCaP/AR(cs) xenograft tumors; experiment: LNCaP/AR; details: for tumors with >50% regression (volume): 10 mg/kg/day daily-gavage
[3] = steady-state plasma- and brain-tissue levels in mice; details: 10 mg/kg/day; for Brain C24hr / Plasma C24hr: 28d daily-dosing; for Brain C24hr: 24h after final-dose; for Plasma C24hr: 24h after final-dose (brain study); for Kp: mouse, brain
[4] = system: CRPC; details: chemotherapy-naïve and -treated CRPC patients; cited from earlier work
[5] = steady-state plasma and tumor-tissue concentrations in LNCaP/AR; details: for Plasma C24hr / Tumor C24hr: 28d dosing, mean ± SD; for Plasma C24hr: 24h after final dose; for Tumor C24hr: LNCaP/AR(cs) xenograft tumor-tissue; for Kp: mouse, tumor, oral
[6] = system: AR-regulated genes; experiment: qRT-PCR analysis of AR-regulated genes in LNCaP/AR; details: absence of R1881; up to 10 μM
[7] = system: LNCaP/AR-luc xenograft tumors; experiment: luciferase-imaging of LNCaP/AR-luc xenograft tumors in castrate male mice; details: 10 mg/kg/day oral, 17 days
[8] = mouse pharmacokinetics
[9] = system: AR; experiment: AR binding-assay using MDA-MB-453 cell-extracts
[10] = system: LNCaP/AR tumors; experiment: Ki67 IHC and TUNEL-staining of LNCaP/AR tumor-tissue from castrate mice; details: 10 mg/kg/day, 25d
[11] = system: VCaP cells; experiment: VCaP proliferation assay; details: 7d treatment; for VCaP proliferation, antagonist-mode: with 30pM R1881; for VCaP proliferation, agonist-mode: without R1881
[12] = system: LNCaP/AR(cs) xenografts; experiment: LNCaP/AR; details: 28d, intact (non-castrate) mice
[13] = system: PC-3 prostate cancer cells; experiment: growth of AR-negative PC-3 cells
[14] = system: prostate and epididymis; details: 10 mg/kg/day for 28 days
[15] = dog pharmacokinetics

CC(=O)O[C@H]1CC[C@@]2(C)C(=CC[C@@H]3[C@@H]2CC[C@]2(C)C(c4cccnc4)=CC[C@@H]32)C1 [abiraterone acetate]
increase in overall survival over control (prednisone only) [1]: 3.9 months

CNC(=O)c1ccc(N2C(=S)N(c3ccc(C#N)c(C(F)(F)F)c3)C(=O)C2(C)C)cc1F [MDV3100, reference compound]
animals with >50% reduction in tumor-volume ([2]; 30 mg/kg/day, day 28, castrate mice): 3 of 19
animals with >50% reduction in tumor-volume ([2]; mouse, in vivo): 12/19
optimal biological dose (OBD: lowest dose yielding maximum efficacy) ([2]; mouse, in vivo): 30–100 mg/kg/day
Brain C24hr [3]: 2.01 ± 0.83 µg/g
Plasma C24hr [3]: 10500 ± 2300 ng/mL
Kp [3]: 0.188 ± 0.044
patients with significant serum-PSA responses (>50% decrease) [4]: > 50%
Plasma C24hr ([5]; 1 mg/kg/day): 1080 ± 260 ng/mL
Tumor C24hr ([5]; 1 mg/kg/day): 0.439 ± 0.12 µg/g
Plasma C24hr ([5]; 10 mg/kg/day): 11000 ± 2500 ng/mL
Tumor C24hr ([5]; 10 mg/kg/day): 3.39 ± 1.50 µg/g
agonist activity on AR-regulated gene expression [6]: did not exhibit agonist activity

CNC(=O)c1ccc(N2C(=S)N(c3cnc(C#N)c(C(F)(F)F)c3)C(=O)C23CCC3)cc1F [ARN-509]
tumors with >50% regression (volume) ([2]; day 28, castrate mice): 8/10
tumors no longer palpable ([2]; 10 mg/kg/day, day 28, of 10 tumors): 2
animals with >50% reduction in tumor-volume ([2]; 100 mg/kg/day, day 28, castrate mice): 13/19
optimal biological dose (OBD: lowest dose yielding maximum efficacy) ([2]; LNCaP/AR model): 10–30 mg/kg/day
androgen-driven luciferase reporter-gene activity normalized to tumor volume, vs vehicle [7]: consistently reduced
oral bioavailability [8]: high
plasma half-life [8]: long
AR binding in cell-extracts, ARN-509 vs bicalutamide [9]: does not differentiate between ARN-509 and bicalutamide
increase in apoptotic rate (TUNEL) versus vehicle [10]: 10 fold
Brain C24hr [3]: 0.479 ± 0.132 µg/g
Plasma C24hr [3]: 1640 ± 300 ng/mL
Kp [3]: 0.293 ± 0.063
VCaP proliferation, antagonist-mode [11]: antagonized the proliferative effect of R1881
VCaP proliferation, agonist-mode [11]: fails to stimulate proliferation
anti-tumor effect ([12]; 10 mg/kg/day): largely confined to stabilization of tumor-growth
animals with robust tumor-regression (>50% reduction in starting tumor volume) ([12]; 30 mg/kg/day): 6/8
effect on growth of AR-negative PC-3 cells [13]: no significant effect on growth
apoptotic-rate in dog prostates (TUNEL-staining) [14]: no change in apoptotic-rate
epididymis histopathology / spermatozoa [14]: contained minimal spermatozoa
prostate histopathology [14]: lack of glandular secretory activity
reduction in epididymis weight ([14]; not statistically significant): 1.7 fold
reduction in weight of dog prostates ([14]; p<0.05 vs vehicle): 3 fold
Plasma C24hr ([5]; 1 mg/kg/day): 425 ± 160 ng/mL
Tumor C24hr ([5]; 1 mg/kg/day): 0.991 ± 0.30 µg/g
Plasma C24hr ([5]; 10 mg/kg/day): 3310 ± 980 ng/mL
Tumor C24hr ([5]; 10 mg/kg/day): 3.26 ± 0.82 µg/g
Kp ([5]; 1 mg/kg/day): 2.59 ± 0.11
Kp ([5]; 10 mg/kg/day): 1.07 ± 0.44
oral bioavailability [15]: high
plasma half-life [15]: long
agonist activity on AR-regulated gene expression [6]: did not exhibit agonist activity

CC(O)(CS(=O)(=O)c1ccc(F)cc1)C(=O)Nc1ccc(C#N)c(C(F)(F)F)c1 (stereo not drawn) [bicalutamide, reference compound]
tumors with >50% regression (volume) ([2]; day 28, castrate mice): 1/10
VCaP proliferation, antagonist-mode [11]: only partially antagonized the effects of R1881
VCaP proliferation, agonist-mode [11]: induced cell-proliferation in a dose-dependent manner
agonist activity on AR-regulated gene expression [6]: altered gene-expression consistent with its well-documented agonist activity

Reference: paper PMC3306502 (Cancer research, 2012)
